Experimental data published in patent US6982348B2, “Aminoethanol derivatives” (Takeda Pharmaceutical Company Limited, priority 2001, dated 2006).

Assays:
human CETP [1] = target: T1, human CETP (Homo sapiens, UniProt P11597); assay: Assay of cholesteryl ester transfer protein inhibitory activity, standard measurement system; type: biochemical; conditions: BODIPY-CE-ME donor, VLDL-LDL acceptor, reaction at 37° C. for 30 min.
T1 sequence (P11597 18-493): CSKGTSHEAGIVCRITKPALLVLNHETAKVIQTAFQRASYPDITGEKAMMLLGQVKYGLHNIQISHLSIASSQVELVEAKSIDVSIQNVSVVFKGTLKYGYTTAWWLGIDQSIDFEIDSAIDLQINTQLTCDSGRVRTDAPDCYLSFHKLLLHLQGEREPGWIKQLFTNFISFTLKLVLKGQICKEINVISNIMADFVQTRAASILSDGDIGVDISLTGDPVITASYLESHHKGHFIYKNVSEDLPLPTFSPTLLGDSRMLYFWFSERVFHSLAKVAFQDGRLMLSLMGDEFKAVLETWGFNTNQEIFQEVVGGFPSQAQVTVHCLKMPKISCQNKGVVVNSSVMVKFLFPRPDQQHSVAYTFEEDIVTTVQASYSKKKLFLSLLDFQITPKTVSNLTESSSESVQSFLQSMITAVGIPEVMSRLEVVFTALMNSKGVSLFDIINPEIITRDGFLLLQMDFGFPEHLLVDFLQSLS
Method: (§1) Assay of Cholesteryl Ester Transfer Protein Inhibitory Activity
(§2) Fresh rabbit serum was adjusted with KBr to the density of (1.063 g/ml), and the fractions (VLDL-LDL, density<1.063 g/ml) floated by ultra-centrifugation operation (SW41—Ti, 40,000 rpm, 18 hrs., 4° C., Beckman model L8-55) were collected, subjected to dialysis against 0.15 M NaCl-10 mM Tris-HCl, pH 7.4 (TBS), sterilized by filtration through a filter and preserved at 4° C.
(§3) A solution of BODIPY-CE (0.6 mg) in chloroform was added to egg PC (phosphatidylcholine) ([…]) and triolein (2 mg), and after dissolution, the lipid was air dried under a nitrogen gas reflux and the solvent was removed under high vacuum. To this lipid was added an apo HDL solution (7.5 ml) obtained by defatting human HDL (1.063<d<1.21) with chloroform-methanol (2:1, v/v), dissolving in 6 M urea-containing TBS and dialyzing against TBS, and the mixture was subjected to sonication (BRANSON SONIFIRE CELL DISRUPTOR 200, dial 6, 5 min×4) to give BOBIPY-CE-ME. After centrifugation (CENTRIPREP 10), it was sterilized by filtration through a filter and preserved at 4° C.
(§4) The test compound (20% DMSO solution, 5 μl), TS (75 μl), acceptor lipoprotein (VLDL-LDL, 20 μl) and partially purified human CETP (25 μl) were mixed and incubated at 37° C. for 30 min. BODIPY-CE-ME (25 μl) was added (total 150 μl) and a transfer reaction was started. After reaction at 37° C. for 30 min., fluorescence intensity was measured at Ex. 490 nm/Em. 530 nm. The CETP inhibitory activity (% inhibition) was calculated by the following formula. [formula] 4) 50% Human Plasma-Containing Measurement System
(§5) The IC50 value was determined as a concentration showing 50% inhibition by plotting the logarithm of the concentration of test compound and % inhibition.

human CETP [2] = target: T1, human CETP; assay: Assay of cholesteryl ester transfer protein inhibitory activity, 50% human plasma-containing measurement system; type: biochemical; conditions: BODIPY-CE-ME donor, VLDL-LDL acceptor, reaction at 37° C. for 60 min.
Method: as §1, §2, §3
as §4, with “5 μl), human plasma (75 μl),” for “5 μl), TS (75 μl),”, “C. for 60 min., fluorescence” for “C. for 30 min., fluorescence”, “formula. [formula]” for “formula. [formula] 4) 50% Human Plasma-Containing Measurement System”
as §5

Row | IC50 (human CETP [1]) | IC50 (human CETP [2]) | melting point | SMILES
1 | 0.088 µM | 1.4 µM |  | O=C(N[C@H](Cc1ccc(C(F)(F)F)cc1)[C@@H](O)c1ccc(Oc2ccccc2)cc1)c1cccc2c1C=CCCC2 (racemic) [Example 210, N-((1RS,2SR)-2-hydroxy-2-(4-phenoxyphenyl)-1-((4-(trifluoromethyl)phenyl)methyl)ethyl)-6,7-dihydro-5H-benzo[a]cycloheptene-1-carboxamide]
2 | 0.04 µM | 0.7 µM | 182 to 183 °C | O=C(N[C@H](Cc1cccc(OC(F)(F)C(F)F)c1)[C@@H](O)c1ccc(Cl)cc1)c1cccc2c1C=CCCC2 (racemic) [Example 216, N-[(1RS,2SR)-2-(4-chlorophenyl)-2-hydroxy-1-[3-(1,1,2,2-tetrafluoroethoxy)benzyl]ethyl]-6,7-dihydro-5H-benzo[a]cycloheptene-1-carboxamide]
3 | 0.0084 µM | 0.08 µM |  | O=C(N[C@H](Cc1cccc(OC(F)(F)C(F)F)c1)[C@@H](O)c1ccc(Oc2ccccc2)cc1)c1cccc2c1C=CCCC2 (racemic) [Example 217, N-((1RS,2SR)-2-hydroxy-2-(4-(phenyloxy)phenyl)-1-((3-((1,1,2,2-tetrafluoroethyl)oxy)phenyl)methyl)ethyl)-6,7-dihydro-5H-benzo[a]cycloheptene-1-carboxamide]
4 | 0.056 µM | 0.66 µM | 116 to 117 °C | CCc1cc(Oc2ccc([C@H](O)[C@@H](Cc3cccc(OC(F)(F)C(F)F)c3)NC(=O)c3cccc4c3C=CCCC4)cc2)ccc1Cl (racemic) [Example 218, N-((1RS,2SR)-2-(4-((4-chloro-3-ethylphenyl)oxy)phenyl)-2-hydroxy-1-((3-((1,1,2,2-tetrafluoroethyl)oxy)phenyl)methyl)ethyl)-6,7-dihydro-5H-benzo[a]cycloheptene-1-carboxamide]
5 | 0.17 µM | 1.4 µM | 193 to 194 °C | O=C(N[C@H](Cc1ccc2c(c1)OC(F)(F)C(F)(F)O2)[C@@H](O)c1ccc(F)cc1)c1ccc(F)c2ccccc12 (racemic) [Example 271, 4-fluoro-N-{(1RS,2SR)-2-(4-fluorophenyl)-2-hydroxy-1-[(2,2,3,3-tetrafluoro-2,3-dihydro-1,4-benzodioxin-6-yl)methyl]ethyl}-1-naphthamide]
6 | 0.052 µM | 3.1 µM | 112 to 113 °C | CC(C)(C)c1ccc(C[C@@H](NC(=O)c2cccc3c(Cl)cccc23)[C@@H](O)c2cccc(Cl)c2)cc1 (racemic) [Example 274, N-[(1RS,2SR)-1-(4-tert-butylbenzyl)-2-(3-chlorophenyl)-2-hydroxyethyl]-5-chloro-1-naphthamide]
7 | 0.03 µM | 1.4 µM | 159 to 160 °C | O=C(N[C@H](Cc1cccc(OC(F)(F)C(F)F)c1)[C@@H](O)c1ccnc(F)c1)c1cccc2c1C=CCCC2 (racemic) [Example 220, N-((1RS,2SR)-2-(2-fluoropyridin-4-yl)-2-hydroxy-1-((3-(1,1,2,2-tetrafluoroethoxy)phenyl)methyl)ethyl)-6,7-dihydro-5H-benzo[a]cycloheptene-1-carboxamide]

More lines, now with the values behind:

Row | SMILES | IC50 (human CETP [1]) | IC50 (human CETP [2]) | melting point
8 | O=C(N[C@H](Cc1cccc(OC(F)(F)C(F)F)c1)[C@@H](O)c1ccc(F)cc1)c1ccc(F)c2ccccc12 (racemic) [Example 125, 4-fluoro-N-[(1RS,2SR)-2-(4-fluorophenyl)-2-hydroxy-1-[3-(1,1,2,2-tetrafluoroethoxy)benzyl]ethyl]naphthalene-1-carboxamide] | 0.051 µM | 2 µM | 186 to 187 °C
9 | O=C(N[C@H](Cc1cccc(OC(F)(F)C(F)F)c1)[C@@H](O)c1ccc(F)cc1)c1cccc2c1C=CCC2 (racemic) [Example 123, N-[(1RS,2SR)-2-(4-fluorophenyl)-2-hydroxy-1-[3-(1,1,2,2-tetrafluoroethoxy)benzyl]ethyl]-5,6-dihydronaphthalene-1-carboxamide] | 0.035 µM | 0.95 µM | 165 to 166 °C
10 | O=C(N[C@H](Cc1cccc(OC(F)(F)C(F)F)c1)[C@@H](O)c1ccc(F)cc1)c1cccc2c1C=CCCC2 (racemic) [Example 122, N-[(1RS,2SR)-2-(4-fluorophenyl)-2-hydroxy-1-[3-(1,1,2,2-tetrafluoroethoxy)benzyl]ethyl]-6,7-dihydro-5H-benzo[a]cycloheptene-1-carboxamide] | 0.015 µM | 0.49 µM | 176 to 177 °C
11 | O=C(NC(Cc1cccc(OC(F)(F)C(F)F)c1)C(O)c1ccc(F)cc1)c1cccc2c1C=CCCC2 (stereo not drawn) [229(+)-form] | 0.0086 µM | 0.24 µM | 
12 | O=C(N[C@H](Cc1ccc(C(F)(F)F)cc1)[C@@H](O)c1ccc(F)cc1)c1ccc(F)c2ccccc12 (racemic) [Example 30, 4-fluoro-N-((1RS,2SR)-2-(4-fluorophenyl)-2-hydroxy-1-((4-(trifluoromethyl)phenyl)methyl)ethyl)-1-naphthalenecarboxamide] | 0.3 µM | 2.5 µM | 210 to 211 °C
13 | O=C(NC(Cc1ccc(C(F)(F)F)cc1)C(O)c1ccc(F)cc1)c1cccc2ccccc12 (stereo not drawn) [226(+)-form] | 0.4 µM | 4.2 µM | 
14 | O=C(N[C@H](Cc1cccc(OC(F)(F)C(F)F)c1)[C@@H](O)c1ccc(F)cc1)c1cccc2c1CCCCC2 (racemic) [Example 124, N-[(1RS,2SR)-2-(4-fluorophenyl)-2-hydroxy-1-[3-(1,1,2,2-tetrafluoroethoxy)benzyl]ethyl]-6,7,8,9-tetrahydro-5H-benzo[a]cycloheptene-1-carboxamide] | 0.046 µM | 2.4 µM | 194 to 195 °C
15 | O=C(NC(Cc1ccc(C(F)(F)F)cc1)C(O)c1ccc(F)cc1)c1ccc(F)c2ccccc12 (stereo not drawn) [227(+)-form] | 0.21 µM | 1.7 µM | 
16 | O=C(N[C@H](Cc1cccc(OC(F)(F)C(F)F)c1)[C@@H](O)c1ccc(F)cc1)c1cccc2c1C=CCCCC2 (racemic) [Example 126, N-[(1RS,2SR)-2-(4-fluorophenyl)-2-hydroxy-1-[3-(1,1,2,2-tetrafluoroethoxy)benzyl]ethyl]-5,6,7,8-tetrahydrobenzo[a]cyclooctene-1-carboxamide] | 0.07 µM | 1 µM | 189 to 190 °C
17 | CC(C)c1ccc(C[C@@H](NC(=O)c2cccc3c2C=CCCC3)[C@@H](O)c2ccc(F)cc2)cc1 (racemic) [Example 155, N-[(1RS,2SR)-2-(4-fluorophenyl)-2-hydroxy-1-(4-isopropylbenzyl)ethyl]-6,7-dihydro-5H-benzo[a]cycloheptene-1-carboxamide] | 0.095 µM | 2.1 µM | 168 to 169 °C
